Reference: US6969590B2, “Use of a polypeptide for treatment of pruritus in animals” (Zengen, Inc., priority 2001, dated 2005)

Tests used:
[1] = test system: edema caused by intradermal injection of human recombinant IL-1β in the mouse ear; test: Ear edema by intradermal recombinant human IL-1β; type: in vivo, BALB/c mice; conditions: for effect of antagonist on anti-inflammatory effect of centrally administered α-MSH (1-13): antagonist administered intraperitoneally
Procedure: Female BALB/c mice (Simonsen Laboratories, Gilroy, Calif.), 7-8 weeks old, were housed at 23-25° C. in groups not exceeding five animals per cage [28 cm (L)×18 cm (W)×13 cm (H)]. Before the experiments they were acclimatized for not less than 1 week before experimentation to standard lighting and temperature conditions with food and water freely available.
Mice were anesthetized with 10% pentobarbital sodium solution (1 mg/mouse, 50 mg/ml, Nembutal sodium solution; Abbott Laboratories, North Chicago, Ill.). Baseline ear thickness measurements were taken with a spring-loaded micrometer (Swiss Precision Instruments, Los Angeles, Calif.). Ear thickness was expressed in cubic centimeters and was measured at least twice at each time point. The average thickness of unstimulated ears was […]. Inflammation was induced by intradermal injection of 20 μl of recombinant human IL-1β (1500 U; Genzyme, Cambridge, Mass.) in one ear of each mouse using a 28 gauge needle (Hiltz et al., 1992). Measures of ear thickness were repeated 4 and 6 hr later, while the mice were under sodium pentobarbital anesthesia. Edema was assessed by subtracting baseline measures from 4 and 6 hr readings for each animal. α-MSH (11-13) (1663.9 gm/mol; Peninsula Laboratories, Belmont, Calif.) or α-MSH (11-13) (383.48 gm/mol; Peninsula Laboratories) dissolved in saline was injected intracerebroventricularly (20 μl) using procedures described previously (Lipton et al., 1991; Lipton and Catania, 1993).
Several agents were administered at the time of ear challenge to pharmacologically block certain receptors: atropine (Sigma Chemical Co.; 150 μg i.p.), a muscarinic receptor blocker that acts on autonomic end-organ receptors, was chosen because of links between inflammation and modulation of pain and the finding that muscarinic antagonists increase pain threshold (Hartvig et al., 1989); phentolamine (Sigma; 150 μg i.p.) an agent that competes for occupancy of α-adrenergic receptors; propranolol (Sigma; 150 μg, i.p.; 30 μg, i.c.v.), a nonspecific competitive antagonist for β-adrenergic receptors.
(§1) Because of the size of the experiments and the requirement for several shipments of animals over time, several experiments were performed, each with complete treatment and control groups drawn from the same shipment of mice. Omnibus analysis of variance techniques (Dynastat, Washington, D.C.) were used to test overall differences among group means. Tukey's protected t test was used to compare individual means. Probability values of <0.05 were considered significant.

[2] = test system: inflammation induced in the hind paw; test: Kappa carrageenan-induced hind paw inflammation, spinal cord intact or transected; type: in vivo, BALB/c mice; conditions: 2.5 mg/mouse IP, mice with spinal transection, 4.5 h after carrageenan
Procedure: Because surgical dissection of trigeminal structures that innervate the ear of the mouse is very difficult, tests to learn whether descending neural pathways are essential to the anti-inflammatory activity of centrally administered α-MSH peptides were performed in mice with inflammation induced in a hind paw. In these experiments, each animal was anesthetized with pentobarbital sodium solution as above. Baseline footpad thickness of both hind paws was measured with a spring-loaded micrometer (Swiss Precision Instruments, Los Angeles, Calif.). Paw thickness was expressed in units of 10^−3 cm; average thickness of unstimulated paws was 171.5×10^−3 cm across shipments of animals. Kappa carrageenan (Sigma) dissolved in saline (0.05%, 20 μl) was injected (28 gauge allergy test syringe) into one footpad, and saline (20 μl) was injected into the other. For the analyses, the increase in thickness of the control saline-injected paw of each animal was subtracted from that of the carrageenan-injected paw, to eliminate the influence of mechanical injury and volume of the injected fluid. To be certain that mice with severed spinal cords can react to anti-inflammatory agents, prednisolone (2.5 mg/mouse (IP injection)) was administered to 10 mice with spinal transection and inflammation induced by carrageenan. Treatment with the locally acting steroid reduced swelling up to 29% (average, relative to saline controls) at 4.5 h. after carrageenan.
However, a standardized crushing of lumbar vertebrae with a hemostat was effective in severing the cord; no deaths were caused by this treatment. […] The experiments were limited to 4.5 h to reduce problems of bowel and bladder dysfunction. Immediately after the 4.5 h measurements all mice were killed with an overdose of sodium pentobarbital.
as §1

[3] = test system: C. albicans; test: C. albicans colony forming units (candidacidal activity); type: cell-based; conditions: for relative potency in reducing C. albicans viability: 10^−4M melanocortin peptides; for reduction of C. albicans CFU at higher concentrations: up to 10^−4M
Procedure: C. albicans (1×10^6/ml in HBSS) was incubated in the presence or absence or α-MSH (1-13) or α-MSH (11-13) at concentrations in the range of 10^−15 M to 10^−6 M for 2 hours at 37° C. Cells were then washed in cold distilled water and diluted with HBSS to a concentration of 100 organisms/ml. One-ml aliquots were dispensed on blood agar plates and incubated for 48 hours at 37° C. Organism viability was estimated from the number of colonies formed. In subsequent experiments using familiar procedures we compared activity of α-MSH (4-10), α-MSH (6-13), α-MSH (11-13), ACTH (1-39), (18-39) and fluconazole, the latter an established antifungal agent. Melanocortin peptides and fluconazole were tested in concentrations of 10^−6 M to 10^−4 M. There were at least six replicates for each concentration of peptide.

[4] = test system: inflammation induced in the ear by picryl chloride; test: Picryl chloride-induced ear swelling; type: in vivo, BALB/C mice; conditions: for overall effect on ear inflammation (ANOVA): 10-80 μg IP, 3 and 6 h
Procedure: Female BALB/C mice (Simmons Laboratories), 7 weeks old, were housed at 23-25° C. in groups of no more than 5 per cage [28 cm (L)×18 cm (W)×13 cm (H)]. They were allowed to acclimatize to standard lighting and temperature conditions for at least 1 week, with food and water available ad lib, before the experiment began. Five to ten animals were randomly assigned to each treatment group each test day, and all experiments were repeated at least twice to confirm reproducibility. To reduce error due to slight differences in responses to the irritant of animals from different shipments, tests of each agent were performed as separate experiments in which experimental and control animals were drawn from the same shipment.
In the experiments each animal was anesthetized with 1 mg of pentobarbital sodium solution (50 mg/kg, Nembutal, Abbott Laboratories, Abbott park, Ill.). Baseline ear thickness was measured for both ears with a spring-loaded micrometer (Swiss Precision Instruments, Los Angeles, Calif.). Ear thickness was expressed in units of 10^−3 cm; the average thickness of unstimulated ears was approximately 25-30×10^−3 cm. After baseline measurements were taken, one of six solutions was injected IP. Control animals received 0.2 ml of sterile saline, and experimental animals received Ac-α-MSH (11-13)-NH2, i.e., Ac-Lys-Pro-Val-NH2), Ac[D-Lys^11] α-MSH (11-13)-NH2, Ac[D-Pro^12] α-MSH (11-13)-NH2, Ac[D-Val^13] α-MSH (11-13)-NH2 or Ac-[D-Lys^11, D-Val^13] α-MSH (11-13)-NH2 in the same volume of saline. […] The doses of the tripeptides were 10 μg ([…]), 20 μg ([…]), 40 μg (1.04×10^−7 M), and 80 μg (2.08×10^−7 M). Immediately after saline or α-MSH injection, a micropipette was used to coat both sides of each ear with 10 μl (40 μl per mouse) of a 0.5% picryl chloride (Polysciences, Warrington, Pa.) solution in acetone.
Ear thickness was remeasured 3 and 6 h after picryl chloride application. Swelling was determined by subtracting baseline thickness from the measurements for each ear at 3 and 6 h. The differences for both ears were then averaged for the final analysis.
Repeated-measure ANOVA techniques were used to determine if there was an overall difference among group data for each peptide tested in separate experiments. In those cases in which the ANOVA yielded significant results, Dunnett's test was then used to compare the effects of peptide doses with control (saline) data for each of the two time periods, 3 and 6 h.

[5] = test system: C. albicans; test: Horse serum-induced germ tube formation of C. albicans; type: cell-based; conditions: 10^−6M, 60 minutes at 37° C.
Procedure: C. albicans from stationary phase cultures were washed twice with distilled water and suspended in HBSS to a final concentration of 2×10^6/ml. Hyphal growth was induced by addition of 10% inactivated horse serum (GIBCO/BRL, Great Britain) to yeast incubated for 45 minutes at 37° C. with continuous shaking. Horse serum was removed by washing cells twice with HBSS and incubation was continued for 60 minutes at 37° C. in the presence of α-MSH (1-13), α-MSH (6-13) or α-MSH (11-13) at a concentration of 10^−6M with continuous shaking. The percentage of filamentous cells was evaluated under a light microscope with the aid of hemocytometer. Experiments were run in triplicate and at least 200 cells were scored. Photomicrographs were taken with an MC100 camera attached to an Axioskop Zeiss microscope.

In the case of `CC(C)NCC(O)COc1ccc(CC(N)=O)cc1` (centres unmarked) [atenolol], the “effect of antagonist on anti-inflammatory effect of centrally administered α-MSH (1-13)” value (“effect … of centrally administered α-MSH (1-13)” below) [1] is reported as “little inhibition”.
In the case of `CN1[C@@H]2CC[C@H]1C[C@@H](OC(=O)C(CO)c1ccccc1)C2` (some centres unmarked) [atropine], the “effect … of centrally administered α-MSH (1-13)” value [1] is reported as “did not alter”.
`COc1ccc(OC)c(C(O)C(C)NC(C)(C)C)c1` (centres unmarked) [butoxamine] was tested, and the “effect … of centrally administered α-MSH (1-13)” value [1] was “significantly reduced”.
For `Cc1ccc(N(CC2=NCCN2)c2cccc(O)c2)cc1` [phentolamine], the “effect … of centrally administered α-MSH (1-13)” value [1] was “did not alter”.
`C[C@]12C=CC(=O)C=C1CC[C@@H]1[C@@H]2[C@@H](O)C[C@@]2(C)[C@H]1CC[C@]2(O)C(=O)CO` [prednisolone, reference compound] was tested, and the “reduction of swelling relative to saline controls (average)” value [2] was “up to 29%”.
For `CC(C)NCC(O)COc1cccc2ccccc12` (centres unmarked) [propranolol], the “effect … of centrally administered α-MSH (1-13)” value [1] was “inhibited” and the “effect of antagonist on anti-inflammatory influence of α-MSH (1-13)” value ([1]; antagonist injected centrally) was “little effect”.
For “ACTH (1-39): adrenocortitrophic hormone peptide (1-39) (SYSMEHFRWGKPVGKKRRPVKVYPNGAEDESAEAFPLEF; Corticotropin; UniProt P01189 138-176, looked up) [reference compound]”, the “relative potency in reducing C. albicans viability” value [3] was “did not reduce C. albicans viability” and the “reduction of C. albicans CFU at higher concentrations” value [3] was “ineffective”.
With “ACTH fragment (18-39): ACTH fragment (18-39) (RPVKVYPNGAEDESAEAFPLEF; Corticotropin; UniProt P01189 155-176, looked up, fragment) [reference compound]” the “relative potency in reducing C. albicans viability” value [3] was “did not reduce C. albicans viability” and the “reduction of C. albicans CFU at higher concentrations” value [3] was “ineffective”.
With “Ac-[D-Lys^11, D-Val^13] α-MSH (11-13)-NH2 [Ac-[D-Lys^11, D-Val^13]α-MSH(11-13)-NH2]” the “% Inhibition of swelling” value ([4]; 10 μg IP, 3 h) was 22%, the “% Inhibition of swelling” value ([4]; 10 μg IP, 6 h) was 22% and the “% Inhibition of swelling” value ([4]; 20 μg IP, 3 h) was 55%. The “% Inhibition of swelling” value ([4]; 20 μg IP, 6 h) was 46%, the “% Inhibition of swelling” value ([4]; 40 μg IP, 3 h) was 42% and the “% Inhibition of swelling” value ([4]; 40 μg IP, 6 h) was 41%. For the same compound, the “% Inhibition of swelling” value ([4]; 80 μg IP, 3 h) was 40%, the “% Inhibition of swelling” value ([4]; 80 μg IP, 6 h) was 44% and the “overall effect on ear inflammation (ANOVA)” value (“overall effect” for short) [4] was “significant overall reduction in inflammation”.
In the case of Ac-[D-Pro^12]α-MSH (11-13)-NH2, the “% Inhibition of swelling” value ([4]; 10 μg IP, 3 h) is reported as 4%, the “% Inhibition of swelling” value ([4]; 10 μg IP, 6 h) is reported as 8% and the “% Inhibition of swelling” value ([4]; 20 μg IP, 3 h) is reported as 11%. The “% Inhibition of swelling” value ([4]; 20 μg IP, 6 h) was 5%, the “% Inhibition of swelling” value ([4]; 40 μg IP, 3 h) was 10% and the “% Inhibition of swelling” value ([4]; 40 μg IP, 6 h) was 8%. For the same compound, the “% Inhibition of swelling” value ([4]; 80 μg IP, 3 h) was 8%, the “% Inhibition of swelling” value ([4]; 80 μg IP, 6 h) was 6% and the “overall effect” value [4] was “no significant effect on inflammation”.
Ac[D-Val^13] α-MSH (11-13)-NH2 was tested, and the “% Inhibition of swelling” value ([4]; 10 μg IP, 3 h) was 24%, the “% Inhibition of swelling” value ([4]; 10 μg IP, 6 h) was 23% and the “% Inhibition of swelling” value ([4]; 20 μg IP, 3 h) was 48%. The “% Inhibition of swelling” value ([4]; 20 μg IP, 6 h) was 54%, the “% Inhibition of swelling” value ([4]; 40 μg IP, 3 h) was 39% and the “% Inhibition of swelling” value ([4]; 40 μg IP, 6 h) was 45%. The “% Inhibition of swelling” value ([4]; 80 μg IP, 3 h) was 41%, the “% Inhibition of swelling” value ([4]; 80 μg IP, 6 h) was 29% and the “overall effect” value [4] was “marked inhibitory influence”.
With “HFRWGKPV (Designed polypeptide with anti-inflammatory, anti-bacterial, anti-fungal and antipyretic properties.) [α-MSH (6-13)]” the “relative potency in reducing C. albicans viability” value [3] was “the most effective” and the “reduction in the number of filamentous cells (inhibition of germination)” value [5] was “approximately 50%”.
MEHFRWG [α-MSH (4-10)] was tested, and the “inhibition of CFU” value ([3]; 10^−4M peptide as printed) was “approximately 50%”.
